Experimental data: patent publication US12414960B2, “Analogues of oleuropein and oleacein and uses thereof” (Attica Sciences Ltd., priority 2020, dated 2025)
Blank lines part the entries; values can stand above or below the compound they belong to.

What was measured:
[1] = test system: HeLa cervical cancer cells; experiment: XTT cell growth assay, HeLa; assay type: cell-based, human; conditions: Homo sapiens, HeLa, 24 h, NS = not statistically significant, read-out: Effectiveness to suppress HeLa cell growth (cell growth inhibition)
Description: (§1) The XTT assay is used to measure cellular metabolic activity as an indicator of cell viability, proliferation and cytotoxicity. This non-radioactive, colorimetric assay system was first described by Scudiero, et al. in 1988 (Paull, Kenneth D. et al., J Heterocycl Chem, 1988, 25: 911-914; Scudiero, Dominic A. et al., Cancer Res, 1988, 48: 4827-4833) and improved in subsequent years by several other investigators (Weislow, Owen S. et al., J Natl Cancer Inst, 1989, 81(8): 577-586; Roehm, N. W. et al., J Immunol Methods, 1991, 142: 257-265).
(§2) The XTT assay is based on the reduction of a yellow tetrazolium salt (sodium 3′-[1-(phenylaminocarbonyl)-3,4-tetrazolium]-bis (4-methoxy6-nitro) benzene sulfonic acid hydrate or XTT) to an orange formazan dye by metabolically active cells (FIG. 8). The formazan dye formed is soluble in aqueous solutions and is directly quantified using a scanning multiwell spectrophotometer (ELISA reader). An increase in number of living cells results in an increase in the overall activity of mitochondrial dehydrogenases in the sample. This increase directly correlates to the amount of orange formazan formed, as monitored by the absorbance. Reduced number of living cells leads to reduced metabolism of quaternary salt and therefore reduced absorption.
(§3) Cell viability was assessed using the XTT assay kit (Roche, Mannheim, Germany) as described previously (Kouka, Paraskevi et al., Oxid Med Cell Longev. 2019, Article ID 1870965). Briefly, cancer cells per well were cultured in a 96-well plate in Dulbecco's modified Eagle's medium (DMEM). Following a 24 h incubation, 5, 10 and 50 μM of the tested GS compound was diluted in a serum-free DMEM and administered for 24 h. Subsequently, 50 μL of the XTT reagent (50:1) was added to each well. After 4 h of incubation, the absorbance was monitored at 450 nm and also at 630 nm as a reference wavelength in a BioTek ELx800 microplate reader (BioTek Instruments Inc., Winooski, VT, USA). As a negative control, samples containing serum-free DMEM only were used.
HeLa is a human immortal cell line used in scientific research. It is the oldest and most commonly used human cell line. The line was derived from cervical cancer cells taken on Feb. 8, 1951 from Henrietta Lacks, a patient who died of cancer on Oct. 4, 1951.
(§4) The effects of exemplary compounds on cancer cell lines and one non-tumorigenic cell line (control) were investigated using a high throughput screening assay. More specifically, the effects of the GS compounds on cell growth was evaluated by the XTT assay for cell lines HepG2, HeLa, MCF7 ER+, MDA-MB-231, and MKN-45, and by the Cell Glo luminescence assay for cell lines MIA PaCa-2, HCT-116, MCF-10A, and PANC-1.

[2] = test system: MCF-7 ER+ breast cancer cells; experiment: XTT cell growth assay, MCF-7 ER+; assay type: cell-based, human; conditions: Homo sapiens, MCF7, 24 h, NS = not statistically significant, read-out: Effectiveness to suppress MCF7 cell growth (cell growth inhibition)
Description: as §1, §2, §3
MCF-7 ER+ is a human breast cancer cell line isolated in 1970 from a person. Prior to MCF-7, it was not possible for cancer researchers to obtain a mammary cell line that was capable of living longer than a few months.
as §4

[3] = test system: MDA-MB-231 triple negative breast cancer cells; experiment: XTT cell growth assay, MDA-MB-231; assay type: cell-based, human; conditions: Homo sapiens, MDA-MB-231, 24 h, NS = not statistically significant, read-out: Effectiveness to suppress MDA-MB-231 cell growth (cell growth inhibition)
Description: as §1, §2, §3
MDA-MB-231 is a human epithelial breast cancer cell line that was established from a pleural effusion of a person with a metastatic mammary adenocarcinomal and is one of the most commonly used breast cancer cell lines in medical research laboratories.
as §4

[4] = test system: MCF-10A non-tumorigenic mammary epithelial cells; experiment: Cell Glo luminescence cell growth assay, MCF-10A normal cells; assay type: cell-based, human
Description: The CellTiter-Glo® Luminescent Cell Viability Assay (Promega Corporation; Madison, WI) is a homogeneous method of determining the number of viable cells in culture based on quantitation of the ATP present, an indicator of metabolically active cells. The homogeneous assay procedure involves adding the single reagent (CellTiter-Glo® Reagent) directly to cells cultured in serum-supplemented medium. The homogeneous “add-mix-measure” format results in cell lysis and generation of a luminescent signal proportional to the amount of ATP present. The amount of ATP is directly proportional to the number of cells present in culture.
Cancer cells (3,000 cells/well) were harvested in a 96-well plate. Then, the cancer cells were treated with GS compounds and incubated for 24 hours. The MT Cell Viability Substrate, NanoLuc® Enzyme and cell culture medium was equilibrated to 37° C. The 2× RealTime-Glo™ reagent was prepared by diluting the MT Cell Viability Substrate and NanoLuc® Enzyme in 37° C. cell culture medium to a 2× concentration for each reagent. […] The cells were kept for ˜20 minutes in the cell culture incubator and then luminescence was measured by using a plate-reading luminometer. […]
as §4, with “PANC-1. […]” for “PANC-1.”
The effect of GS27 on normal cell growth was evaluated using the MCF-10A cell line. […]
GS27, NDI-091143 and Nexletol (10 μM) were used to treat normal epithelial cells MCF-10A cells. […] Forty-eight hours post-treatment, the growth of MCF-10A cells was evaluated by CellTiter-Glo® Luminescent Cell Viability Assay, as discussed in Example 29.

[5] = ABTS radical cation scavenging assay; assay type: biochemical; conditions: NS = not statistically significant
Description: The method of estimating antioxidant capacity, based on the ability to interact with the ABTS.+ radical cation was first performed by Miller et al. in 1993 (Miller, Nicholas et al., Clinical Science, 1993, 84: 407-412, “A novel method for measuring the antioxidant capacity and its application to monitoring the antioxidant status in premature neonates”). The mechanism of interaction of the antioxidant agents to be examined with the ABTS.+ radical is similar to that of the DPPH. radical, which can be inactivated either by the addition of an electron or by the addition of a hydrogen atom. However, unlike the DPPH. radical, which is a stable radical from the beginning, the ABTS.+ radical must be produced by the oxidation of ABTS. Thus, in order to estimate the antioxidant capacity of a substance, the formation of the ABTS.+ radical must first precede and the addition of the substance to be examined must follow. The addition of the antioxidant agent is performed after the production of the root ABTS.+ to avoid the interaction of the antioxidant agents with the oxidizing agents used for the oxidation of ABTS.
The oxidation of ABTS takes place either through chemical reactions with various reagents or through the action of enzymes such as peroxidases. The ABTS.+ radical from the moment it is formed is stable, has a green color and absorbs at 730 nm. When a substance with antioxidant activity is added to the solution, then the ABTS.+ radical is reduced by the addition of a hydrogen (or electron) atom, resulting in reduced visual absorption.
To assess the antioxidant capacity of the samples, the oxidation of ABTS was performed enzymatically through the action of horseradish peroxidase (HRP), in the presence of H2O2 (FIG. 3)
The anti-oxidant capacity of the GS compounds was evaluated by performing the ABTS assay as previously described (Kouka, Paraskevi et al., Oxid Med Cell Longev. 2019, Article ID 1870965). Briefly, in a total reaction volume of 1 mL in distilled water (dH2O), ABTS.^+ (1 mM), H2O2 (30 μM), and horseradish peroxidase (HRP) (6 μM) in 50 mM phosphate-buffered saline were added. The solution was incubated for 45 min at room temperature (RT) in the dark. Finally, 10 μL of the tested GS compound at various concentrations was added, and the absorbance was monitored on a Hitachi U-1900 radio beam spectrophotometer (serial no. 2023-029; Hitachi Ltd.) at 730 nm. In each experiment, a blank without the HRP was used, while the ABTS.^+ radical solution without the extract was used as the control. The RSC percentage of the tested extracts was calculated using the following equation: RSC (%)=[(ODcontrol−ODcompound)/ODcontrol]×100, where ODcontrol and OD sample are the optical density (OD) values of the control and the test sample, respectively.

[6] = Deoxyribose degradation assay (hydroxyl radical scavenging); assay type: biochemical; conditions: NS = not statistically significant
Procedure: The hydroxyl radical (OH.) is an extremely reactive in biological systems and has been implicated as highly damaging species in free radical pathology, capable of damaging biomolecules of the living cells. These radical combines with nucleotides in DNA and cause strand breakage leading to carcinogenesis, mutagenesis and cytotoxicity. Hydroxyl radical (OH.) scavenging capacity of an extract is directly related to its antioxidant activity.
The effect of extracts on hydroxyl radicals was assayed by using the deoxyribose method. 2-Deoxyribose is degraded on exposure to hydroxyl radicals generated by Fenton's reaction. The ability to neutralize the OH. is estimated as the rate of inhibition of the oxidation of 2-deoxyribose by the OH. (FIG. 5).
The measurement of the hydroxyl radical scavenging activity was evaluated for each of the GS compound by evaluating the pink chromogen absorption at 532 nm by spectrophotometry as described previously (Perjesi, Pal et al., Open Med Chem J., 2011, 5: 61-67

[7] = test system: HepG2 liver cancer cells; experiment: XTT cell growth assay, HepG2; assay type: cell-based, human; conditions: Homo sapiens, HepG2, 24 h, NS = not statistically significant, read-out: Effectiveness to suppress HepG2 cell growth (cell growth inhibition)
Description: as §1, §2, §3
Hep G2 (or HepG2) is a human liver cancer cell line. Hep G2 is an immortal cell line which was derived from the liver tissue of an adolescent with a well-differentiated hepatocellular carcinoma. Hep G2 cells are a suitable in vitro model system for the study of polarized human hepatocytes.
as §4

[8] = test system: MKN-45 gastric cancer cells; experiment: XTT cell growth assay, MKN-45; assay type: cell-based, human; conditions: Homo sapiens, MKN-45, 24 h, NS = not statistically significant, read-out: Effectiveness to suppress MKN-45 cell growth (cell growth inhibition)
Description: as §1, §2, §3
MKN-45 is a human gastric adenocarcinoma, established from the poorly differentiated adenocarcinoma of the stomach (medullary type) of a person.
as §4

SMILES: C/C=C(/C=O)[C@@H](CC=O)CC(=O)OC [GS16, (3S,4E)-4-Formyl-3-(2-oxoethyl)hex-4-enoic acid methyl ester]
inhibition at 50 µM [1]: 72.6%
inhibition at 50 µM [2]: 26.6%
inhibition at 50 µM [3]: 35%
inhibition at 10 µM ([4]; Homo sapiens, MCF-10A, 10 uM, 24 h, normal cells, safety control, NS = not statistically significant, read-out: Effectiveness to suppress MCF10A cell growth (cell growth inhibition)): 10.1%

ABTS Radical Cation Scavenging Assay IC50 [5]: 50.2 μg extract/mL
Deoxyribose Degradation Assay IC50 [6]: 20 μg extract/mL
SMILES: C/C=C(/C=O)[C@@H](CC=O)CC(=O)OCCc1cccc(O)c1 [GS20, (3S,4E)-4-formyl-3-(2-oxoethyl)-4-hexenoic acid 3-hydroxyphenethyl ester]
inhibition at 50 µM [7]: 50%
inhibition at 50 µM [1]: 56.4%
inhibition at 50 µM [2]: 36.1%
inhibition at 50 µM [3]: 56.4%
inhibition at 50 µM [8]: 84.1%

SMILES: CC(C)(CCCCCC(O)CCCCCC(C)(C)C(=O)O)C(=O)O [Nexletol, reference compound]
effect on MCF-10A normal cell growth ([4]; 10 μM, forty-eight hours post-treatment): inhibitory effect
